The target of one test is WT S1P1 (Homo sapiens, UniProt P21453). Put plainly: Ligand-induced [35S]GTPγS binding, WT S1P1. The test is classed as biochemical. On the set-up: expressed in transfected cells; host or cells: RH7777 (transient, pcDNA3.1). To be noted: for S1P1 receptor activation in the GTPγS activation assay: at 10 μM, versus vehicle; for S1P1 agonist character: result in words. The procedure:
(§1) RH7777 and HEK-293 cells (ATCC, Manassas, Va.) were maintained in Dulbecco's modified minimal essential medium (DMEM) containing 10% fetal bovine serum (Hyclone, Logan, Utah). Cells (2×10^6) were transfected with 2 μg of plasmid DNA with Effectene (Qiagen, Valencia, Calif.) according to the manufacturer's instructions, for 24 h. Before ligand binding and receptor activation assays, the cells were washed twice with serum-free DMEM and serum-starved for at least 6 h.
(§2) S1P1 Receptor Activation Assays Receptor functional assays were performed in transiently transfected RH7777 cells by measuring S1P-activated [^35S]GTPγS binding as previously described (28).

For another test, the target named is LPA1 (Homo sapiens, UniProt Q92633). Put plainly: LPA agonist/antagonist activity at LPA1 (Table 2). The test is classed as cell-based. To be noted: for LPA1 effect: result in words.
LPA1, sequence (Q92633 whole entry, species assumed): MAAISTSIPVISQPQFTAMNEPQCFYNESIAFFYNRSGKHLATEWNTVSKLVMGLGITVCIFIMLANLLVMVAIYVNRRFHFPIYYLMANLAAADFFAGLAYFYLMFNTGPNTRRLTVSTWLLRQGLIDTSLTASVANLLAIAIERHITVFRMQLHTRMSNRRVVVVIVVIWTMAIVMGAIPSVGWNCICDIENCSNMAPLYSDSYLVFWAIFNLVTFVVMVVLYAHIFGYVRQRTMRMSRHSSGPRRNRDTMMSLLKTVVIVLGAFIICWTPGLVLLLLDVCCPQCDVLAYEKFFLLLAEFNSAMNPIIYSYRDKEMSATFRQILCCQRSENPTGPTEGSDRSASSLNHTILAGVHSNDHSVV
The target in the next test is LPA2 (Homo sapiens, UniProt Q9HBW0). Put plainly: LPA agonist/antagonist activity at LPA2 (Table 2). The test is classed as cell-based. As to conditions: for LPA2 effect: result in words.
LPA2, sequence (Q9HBW0 whole entry, species assumed): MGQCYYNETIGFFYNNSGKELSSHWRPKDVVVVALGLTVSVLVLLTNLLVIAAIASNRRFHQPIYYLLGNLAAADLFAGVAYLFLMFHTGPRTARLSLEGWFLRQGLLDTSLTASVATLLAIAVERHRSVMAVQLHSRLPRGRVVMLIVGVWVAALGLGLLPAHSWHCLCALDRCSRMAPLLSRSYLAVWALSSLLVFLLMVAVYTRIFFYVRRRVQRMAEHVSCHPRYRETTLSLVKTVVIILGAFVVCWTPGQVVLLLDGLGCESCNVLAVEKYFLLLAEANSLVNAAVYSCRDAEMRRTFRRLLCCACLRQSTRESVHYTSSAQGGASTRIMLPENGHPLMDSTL
The target in another test is T1, LPA3 (Homo sapiens, UniProt Q9UBY5).
T1 sequence (Q9UBY5 1-353): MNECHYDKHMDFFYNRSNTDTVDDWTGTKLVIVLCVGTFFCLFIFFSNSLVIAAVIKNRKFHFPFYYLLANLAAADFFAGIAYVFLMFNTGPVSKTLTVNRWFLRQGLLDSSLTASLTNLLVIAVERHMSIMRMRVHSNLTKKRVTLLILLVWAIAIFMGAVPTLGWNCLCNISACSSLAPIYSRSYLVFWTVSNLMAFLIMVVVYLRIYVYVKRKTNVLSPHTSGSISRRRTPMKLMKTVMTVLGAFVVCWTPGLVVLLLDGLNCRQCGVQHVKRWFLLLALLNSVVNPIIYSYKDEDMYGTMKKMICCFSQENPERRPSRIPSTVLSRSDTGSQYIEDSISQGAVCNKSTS
Put plainly: LPA agonist/antagonist activity at LPA3 (Table 2). As to conditions: for LPA3 inhibition of 200 nM LPA response at 30JM: compound at 30JM; for LPA3 effect: result in words. The test is classed as cell-based.

Another test addresses T2, S1P1 mutant W6.48A (Homo sapiens, UniProt P21453, W269A).
T2 construct: expressed in transfected cells
Put plainly: [35S]GTPγS binding, S1P1 W6.48A. The test is classed as biochemical. To be noted: S1P1 W6.48A, result in words, compared with S1P. The procedure:
as §1, §2

Another test has as its target T3, S1P1 mutant V6.40L (Homo sapiens, UniProt P21453, V261L).
T3 construct: expressed in transfected cells; host or cells: RH7777
Put plainly: [35S]GTPγS binding, S1P1 V6.40L. The test is classed as biochemical. As to conditions: S1P1 V6.40L, result in words. The procedure:
as §1, §2

For the next test, the target named is T4, S1P1 mutant F5.48G (Homo sapiens, UniProt P21453, F210G).
T4 construct: expressed in transfected cells
T4 sequence (P21453 whole entry F210G): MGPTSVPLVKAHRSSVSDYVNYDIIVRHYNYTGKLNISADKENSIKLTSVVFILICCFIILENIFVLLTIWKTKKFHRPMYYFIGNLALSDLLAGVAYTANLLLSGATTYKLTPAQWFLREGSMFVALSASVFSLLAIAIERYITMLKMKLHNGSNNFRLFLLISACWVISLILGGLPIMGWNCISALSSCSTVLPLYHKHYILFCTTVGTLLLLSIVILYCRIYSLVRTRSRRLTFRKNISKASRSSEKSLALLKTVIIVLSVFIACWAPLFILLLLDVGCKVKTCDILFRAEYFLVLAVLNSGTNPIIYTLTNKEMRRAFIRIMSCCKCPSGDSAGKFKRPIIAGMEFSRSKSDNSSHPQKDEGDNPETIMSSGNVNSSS
Put plainly: [35S]GTPγS binding, S1P1 F5.48G. The test is classed as biochemical. To be noted: S1P1 F5.48G, result in words, compared with S1P. The procedure:
as §1, §2

The target in a further test is S1P1 mutant L3.36E (Homo sapiens, UniProt P21453, L128E). Put plainly: [35S]GTPγS binding, S1P1 L3.36E. To be noted: S1P1 L3.36E, result in words, compared with S1P. The test is classed as biochemical. On the set-up: expressed in transfected cells; host or cells: RH7777 (transient, pcDNA3.1). The procedure: as §1, §2
S1P1 mutant L3.36E, sequence (P21453 whole entry L128E): as the sequence (P21453 whole entry F210G) above, with L128E, G210F counted along it

The text below walks through data of patent publication US20090029949A1, “GPCR Ligands Identified by Computational Modeling” (priority 2006, published 2009).

Each structure is given as a SMILES string. “Also recorded” adds a separate entry of the source. Peptide text beside a SMILES is read from it. * marks the point of attachment. Dnp = O=[N+]([O-])c1ccc(*)c([N+](=O)[O-])c1

T3 sequence (P21453 whole entry V261L): as the sequence (P21453 whole entry F210G) above, with G210F, V261L counted along it
WT S1P1, sequence (P21453 whole entry): as the sequence (P21453 whole entry F210G) above, with G210F counted along it
T2 sequence (P21453 whole entry W269A): as the sequence (P21453 whole entry F210G) above, with G210F, W269A counted along it

On to `CCN(CC)CCOc1ccc(/C(C#N)=C\c2ccc(C(F)(F)F)cc2)cc1` [NSC59474], for which, at WT S1P1, the “S1P1 receptor activation in the GTPγS activation assay” value is “GTPγS activation greater than that of the vehicle” and the S1P1 agonist character result is “partial agonists”.
Regarding `CCCC(=O)Nc1ncnc2c1ncn2C1OC2COP(=O)(O)OC2C1OC(=O)CCC` (centres unmarked) [NSC 143108], at LPA1, the LPA1 effect result is given as “Weak agonist”. Also, the LPA2 effect entry on LPA2 is recorded as “No Effect”. Besides, at LPA3, the IC50 was 1310 nM and the “LPA3 inhibition of 200 nM LPA response at 30JM” value amounted to 61.0%.
As to `FC(F)(F)c1cccc(-c2noc(-c3cc(-c4ccccc4)c(C(F)(F)F)s3)n2)c1` [SEW2871], the “ligand-induced GTPγS activation” value is “similarly impaired activation” at S1P1 mutant W6.48A; “slightly activated; also recorded: partial activation” at S1P1 mutant V6.40L; “dose-dependent partial activation” at S1P1 mutant V6.40L (listed as SE2871); “similarly impaired activation” on S1P1 mutant F5.48G; “similarly impaired activation” at S1P1 mutant L3.36E.
Consider `O=P(O)(O)OC[C@H]1O[C@@H](n2cnc3c(NCc4ccccc4)ncnc32)C(O)C1O` (some centres unmarked) [NSC 255523], for which the LPA1 effect entry on LPA1 is on record as “No effect”. Further, the LPA2 effect entry at LPA2 is “No effect”. Besides, at LPA3, the LPA3 effect entry was “PotentiatesLPA-inducedactivation”.
Regarding `O=C(c1ccccc1Cc1ccc2ccc(C(F)(F)F)cc2c1)c1cccc2ccccc12` [NSC99548], at WT S1P1, the “S1P1 receptor activation in the GTPγS activation assay” value was “GTPγS activation greater than that of the vehicle” and the S1P1 agonist character result was “partial agonists”.
For the compound `Cc1cc2nc3c(=O)[nH]c(=O)nc-3n(CCOC(=O)CCC(=O)O)c2cc1C` [NSC 3066], the IC50 on LPA1 came out at 197 nM; on LPA2, 167 nM; at LPA3, 103 nM. Moreover, the Ki at LPA1 was found to be 91.7 nM; at LPA2 it was 78.7 nM; at LPA3, 44.8 nM.
Consider `OC1C(O)[C@@H](COP(O)(O)=S)O[C@H]1n1cnc2c(NCc3ccccc3)ncnc21` (some centres unmarked), for which the LPA1 effect result at LPA1 was “No effect”. Besides, at LPA2, the LPA2 effect entry is “PotentiatesLPA-inducedactivation”. In addition, the LPA3 effect entry at LPA3 is “No effect”.
For the compound `Cn1c(=O)c2c(nc(C(=N)SCC(=O)O)n2C)n(C)c1=O` [NSC 62586], the results for the concentration for half-maximal inhibition (IC50) at LPA1, on LPA2 and on LPA3 were 234 nM, 172 nM and 35 nM, respectively. Moreover, the values for the inhibition constant Ki at LPA1, on LPA2 and on LPA3 were 91.7 nM, 117 nM and 15.7 nM, respectively.
In the case of `NCC(=O)NC(CSc1ccc([N+](=O)[O-])cc1[N+](=O)[O-])C(=O)NC(CCC(=O)O)C(=O)O` (centres unmarked) [NSC 161613] (H-Gly-Cys(Dnp)-Glu-OH; configuration not given here), the LPA1 effect result at LPA1 is “No effect”. Moreover, the LPA2 effect entry on LPA2 is given as “No effect”. On LPA3, the IC50 came out at 24 nM and the “LPA3 Inhibition of 200 nM LPA response” value stood at 69.8%.
On to `O=C(O)CCC(NC(=O)OCc1ccccc1)C(=O)NC(Cc1ccccc1)C(=O)O` (centres unmarked) [NSC 18760], for which the LPA1 effect entry at LPA1 is reported as “No effect”. Also, at LPA2, the IC50 worked out at 20 nM and the “LPA2 Inhibition of 10 nM LPA response” value is listed as 53.3%. Further, on LPA3, the IC50 turned out to be 9 nM and the “LPA3 Inhibition of 200 nM LPA response” value stood at 58.7%.
Taken in the same sequence, the figures for `COc1ccc(C(=O)CCCC(=O)O)c(OC)c1O` [NSC 10167] were “No Effect”, 88 nM, 47.4%, 517 nM and 49.9%.
Consider `COc1ccc2c(c1)c(CC(=O)O)c(C)n2C(=O)c1ccc(Cl)cc1` [NSC 77541], for which, at LPA1, the LPA1 effect result is given as “Weak agonist”. For the same compound, the LPA2 effect result on LPA2 is given as “No Effect”. The “LPA3 inhibition of 200 nM LPA response at 30JM” value at LPA3 came out at 76.2%.
Turning to `O=C(O)/C=C/C(=O)Nc1cccc(NC(=O)/C=C/C(=O)O)c1C(=O)O` [NSC 47091], the LPA1 effect result on LPA1 is “No effect”. On LPA2, the IC50 was 355 nM and the “LPA2 Inhibition of 10 nM LPA response” value worked out at 53.5%. Further, at LPA3, the IC50 was 30 nM and the “LPA3 Inhibition of 200 nM LPA response” value is given as 81.7%.
Take `O=C(NC(Cc1ccc2c(c1)OCO2)C(=O)O)c1ccccc1` (centres unmarked) [NSC 10188]: the LPA1 effect entry at LPA1 was “Weak agonist”. For the same compound, the IC50 on LPA2 came to 6900 nM. The “LPA2 inhibition of 200 nM LPA response at 30JM” value at LPA2 (200 nM LPA, compound at 30JM) turned out to be 55.8%. The LPA3 effect entry at LPA3 is on record as “No effect”.
Take `COC(=O)C(CCC(=O)O)N1C(=O)c2ccccc2C1=O` (centres unmarked) [NSC 16540]: the LPA1 effect result at LPA1 is “No effect”. In addition, at LPA2, the IC50 came out at 100 nM and the “LPA2 Inhibition of 10 nM LPA response” value was 50.9%. For the same compound, on LPA3, the IC50 amounted to 231 nM and the “LPA3 Inhibition of 200 nM LPA response” value came out at 59.7%.
